Experimental findings from US7335500B2, “Production of fucosylated carbohydrates by enzymatic fucosylation synthesis of sugar nucleotides; and in situ regeneration of GDP-fucose” (The Scripps Research Institute, priority 1991, dated 2008) are described below.

Type in all cases: biochemical
The target of experiment [1] is T1, human plasma type α1,3FucT (Homo sapiens, UniProt Q11128).
T1 sequence (Q11128 1-374): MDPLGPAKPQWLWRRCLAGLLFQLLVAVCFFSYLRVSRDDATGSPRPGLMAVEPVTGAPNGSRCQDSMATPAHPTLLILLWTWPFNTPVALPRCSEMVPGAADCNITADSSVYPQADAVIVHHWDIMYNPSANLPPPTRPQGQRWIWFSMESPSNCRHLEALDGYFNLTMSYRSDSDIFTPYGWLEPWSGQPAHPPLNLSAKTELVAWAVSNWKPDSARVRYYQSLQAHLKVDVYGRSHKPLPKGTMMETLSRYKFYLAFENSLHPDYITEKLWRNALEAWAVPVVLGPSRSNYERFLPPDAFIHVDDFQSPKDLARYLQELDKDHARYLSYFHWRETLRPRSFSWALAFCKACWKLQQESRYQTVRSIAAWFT
In words: Substrate specificity and inhibition study of α1,3FucT (GDP-14C-Fuc transfer assay). To be noted: 0.1 mM GDP-Fuc. The protocol:
The assay procedure was essentially the same as described previously [Fukowska-Latallo et al, Gene & Development, 4:1288 (1990)] with some modifications. A stock mixture containing 0.25 mM GDP-^14C-Fuc (5000 cpm/mL), 6.25 mM ATP, 25 mM MnCl2 and 62.5 mM sodium cacodylate buffer, pH 6.2 was mixed freshly and kept on ice. […] The incubation was carried out at 37° C. for 30 to 240 minutes depending upon the acceptor under study. Separate assays in the absence of acceptor were used to correct for background hydrolysis of GDP-Fuc. Upon completion of incubation, 400 μL of a 25 percent (v/v) suspension of QAE-Sephadex was added. […] From the supernatant fluid, 200 μL were extracted and mixed with 10 mL of scintillation cocktail. The radioactivity was counted on a scintillation counter. […] This assay can be run in the absence of ATP.

The target of experiment [2] is T2, α2,3SiaT (Rattus norvegicus, UniProt Q02734).
T2 construct: fusion protein between the pre-insulin signal peptide and the catalytic domain of the sialyltransferase; pre-insulin signal peptide (N); made in house; host or cells: Sf-9 insect cells (baculovirus rBv2,3ST), secreted into the medium
T2 sequence (Q02734 48-374 limits assumed): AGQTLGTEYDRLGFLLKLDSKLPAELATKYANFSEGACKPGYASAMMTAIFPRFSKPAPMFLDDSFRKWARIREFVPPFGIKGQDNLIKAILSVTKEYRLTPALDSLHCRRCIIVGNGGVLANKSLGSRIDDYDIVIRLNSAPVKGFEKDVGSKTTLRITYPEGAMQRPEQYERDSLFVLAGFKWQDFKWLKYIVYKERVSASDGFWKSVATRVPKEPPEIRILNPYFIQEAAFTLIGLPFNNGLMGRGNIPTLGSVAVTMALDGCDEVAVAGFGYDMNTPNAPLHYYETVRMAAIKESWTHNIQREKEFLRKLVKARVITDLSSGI
In words: Enzymatic sialylation with α2,3sialyltransferase. From the text:
Sialylation A multienzyme system for sialylation starts with NeuAc, [Gal-1-^13C]-LacNAcβOallyl, PEP, and catalytic amounts of ATP and CMP, as is shown in Scheme 16, below. CMP was converted to CDP by nucleoside monophosphate kinase (EC 2.7.4.4, NMK) in the presence of ATP, which was regenerated from its byproduct ADP catalyzed by PK in the presence of PEP, then to CTP with PEP by PK. The CTP was then reacted with NeuAc with CMP-NeuAc synthetase (EC 2.7.7.43) to produce CMP-NeuAc. The byproduct, PPi was hydrolyzed to Pi by PPase. Sialylation of LacNAcβOallyl was accomplished with CMP-NeuAc and α2,3sialyltransferase (α2,3SiaT; EC 2.4.99.6). The released CMP was again converted to CDP, CTP, and finally to CMP-NeuAc. Using this system, [Gal-1-^13C]NeuAcα2,3Galβ1,4GlcNAcβOallyl (Compound 42) as well as the unlabelled trisaccharide were prepared.
A solution of Compound 1-^13C-41 (210 mg, […]), NeuAc (160 mg, […]), PEP Na3 salt (120 mg, 0.51 mmol), MgCl2.6H2O (20 mg, 0.10 mmol), MnCl2.4H2O (4.9 mg, 0.025 mmol), KCl (7.5 mg, 0.10 mmol), CMP (16 mg, 0.05 mmol), ATP (2.7 mg, […]) and mercaptoethanol (0.34 mL) in HEPES buffer (200 mM, pH 7.5; 3.5 mL) was adjusted with N NaOH to pH 7.5 and the enzymes, NMK (5 U), PK (100 U), PPase (10 U), CMP-NeuAc synthetase (0.4 U) and α2,3SiaT (0.1 U) were added to the solution. […]

In experiment [3] the target is T3, GalT (Bos taurus, UniProt P08037).
T3 construct: purchased Sigma
T3 sequence (P08037 79-402 limits assumed): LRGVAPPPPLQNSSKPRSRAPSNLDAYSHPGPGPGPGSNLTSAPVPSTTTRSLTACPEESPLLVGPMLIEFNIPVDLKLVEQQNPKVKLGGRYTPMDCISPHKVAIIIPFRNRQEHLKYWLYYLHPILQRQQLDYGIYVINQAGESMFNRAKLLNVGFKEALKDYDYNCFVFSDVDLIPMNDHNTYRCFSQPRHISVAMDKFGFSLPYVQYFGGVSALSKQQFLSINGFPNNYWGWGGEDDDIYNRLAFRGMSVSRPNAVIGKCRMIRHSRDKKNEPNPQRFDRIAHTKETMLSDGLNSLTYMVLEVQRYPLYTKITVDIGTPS
In words: Kinetic study of GalT (rate of LacNAc formation, UDP-14C-Gal). The conditions noted are these: 100 mM cacodylate pH 7.5, 9.3 mM Mn2+, 0.1 mM UDP-Gal, 20° C. The protocol: Initial velocities of the enzyme reaction were determined by measuring the rate of LacNAc formation with a slight modification of the assay by Pierce et al. [Pierce et al., Anal. Biochem., 102:441 (1980)]. All the reactions were carried out in 100 mM cacodylate buffer (pH 7.5) with fixed concentrations of Mn^2+ (9.3 mm) and UDP-Gal (0.1 mM; 58.5 cpm/pmol of UDP-^14C-Gal) in […] of solution. The reaction was initiated by the addition of GalT (0.05 U, […]; from Sigma) and permitted to stand at 20° C. for 30 minutes. Nonspecific hydrolysis of UDP-Gal was measured by the control reaction in the absence of GalT. The reaction was stopped by passing through a column of QAE-Sephadex ([…]), and eluted by gentle air pressure to remove the unreacted UDP-Gal. The reaction vial was rinsed twice with […] of water each and passed through the resin column. The filtrates were collected and directly transferred into a scintillation vial. The scintillation fluid was added to the vial, and then radioactivity was counted by a liquid scintillation counter. […] Res., 159:315 (1987)] and Ki (0.46±0.06 mM) for UDP. Similarly, IC50 value of UDP for GalT was determined using different concentration of UDP.

Some results are limits rather than exact numbers.

On to `OC[C@H]1O[C@@H](O[C@H]2[C@H](O)C=CO[C@@H]2CO)[C@H](O)[C@@H](O)[C@H]1O` [Galβ1,4Glucal], for which, in experiment [1] (10 mM Mn2+ and 10 mM LacNAc at pH 6.2 and 37° C.), the IC50 (commonly the point on the concentration scale where inhibition reaches its midpoint) is above 50000 µM. Moreover, in experiment [1] (10 mM MnCl2 and 10 mM Galβ1,4GlcNAc, Galβ1,4GlcNAc = 100), the “Vrel (relative maximal velocities)” value is listed as 10. The “substrate for α2,3SiaT (in words)” value in experiment [2] was “good substrate”.
With `O=c1ccn([C@@H]2O[C@H](COP(=O)(O)OP(=O)(O)O)[C@@H](O)[C@H]2O)c(=O)[nH]1` [UDP, uridine 5′-diphosphate], in experiment [3], the Ki (usually a dissociation constant, usually derived from enzyme kinetics or from competition with a known ligand) was 460 µM.
